Article PMC9401491, “The Novel Nucleoside Analogue ProTide NUC-7738 Overcomes Cancer Resistance Mechanisms In Vitro and in a First-In-Human Phase I Clinical Trial” (Clinical Cancer Research, 2021)

Tests used:
501MEL = assay: MTT cell viability, 501MEL; assay type: cell-based; settings: 48 h
Method: (§1) Cells (10^4) were seeded into 96-well plates and then treated with NUC-7738 (lot 5132/E00393/119) or 3′-dA (cordycepin, catalog no. C3394, lot 067M4182, Sigma) for 48 hours. One and a half milligrams per milliliter MTT (catalog no. M6494, Invitrogen) in a 1:1 ratio was added to cell culture media. After a 2-hour incubation at 37°C, media was removed and 70 μl of isopropanol was added. Optical densities at 570 nm were measured using POLARstar Omega plate reader. Readouts were normalized and IC50 values were calculated using a nonlinear regression model in Graphpad prism (v8.3.0). Each biological replicate (at least 3) was performed in 4 technical replicates to calculate the average IC50 value. To measure apoptosis, the Guava NexinReagent (Luminex Corp.) was used following manufacturer's instructions. Fluorescence staining was measured with an automated 96-well Guava easyCyte Flow Cytometer (Luminex Corp.).

ACHN = assay: MTT cell viability, ACHN; assay type: cell-based; settings: Homo sapiens, 48 h
Method: as §1

HINT1 KO HAP1 cells = assay: Sensitivity of HINT1 CRISPR/Cas9 knockout HAP1 cells; assay type: cell-based, human; settings: HAP1 polyclonal and clonal HINT1 KO vs WT
Method: Cells were transfected with stealth siRNA (catalog no. HSS104782, catalog no. HSS104784, catalog no. HSS179235; ThermoFisher) targeting HINT-1 using Lipofectamine RNAiMAX (Invitrogen) following the manufacturer's protocol. At 48 hours posttransfection, cells were treated and cell viability was measured 96 hours posttransfection as described above. Samples for Western blot analysis were harvested 48 hours posttransfection. For gene-depletion experiments, approximately 4 × 10^5 HAP1 cells were seeded per well in a 6-well plate and grown to approximately 50% confluency. After 24 hours, cells were transfected with lentiCRISPR v2 plasmid (GenScript) containing a guide RNA (gRNA) targeting gene of interest using Turbofectin (catalog no. TF81001, OriGene) according to manufacturer's instruction. The following sequences were used: HINT-1 CRISPR gRNA 2 ([…]) and NUDT2 CRISPR gRNA 2 ([…]). At 24 hours posttransfection, positively transfected cells were selected using […] puromycin for 72 hours. After selection, surviving colonies were expanded and used for downstream analysis. For clonal selection, clones were selected using limited dilution and expanded into a 6-well plate for Western blot screening.
HAP1 cells were seeded at a density of 10,000 cells per well in 6-well plates and indicated drug concentrations were added. […]

NF-κB = NF-κB SEAP reporter and p65 fractionation in THP-1 cells; assay type: cell-based
Method: Cells were harvested and lyzed using RIPA lysis and extraction buffer (Thermo Scientific) following manufacturer's protocol. Twenty to 30 μg of total protein lysates was loaded on Mini-PROTEAN TGX precast gels (Bio-Rad). Separated proteins were transferred to a polyvinylidene difluoride (PVDF) membrane using Trans-Blot Turbo Transfer System (Bio-Rad) followed by incubation with primary and horseradish peroxidase (HRP)–conjugated secondary antibodies [anti-mouse, catalog no. 7076S, Cell Signaling Technology (CST) or anti-rabbit, catalog no. 7074S, CST] and ECL Prime Western blotting (GE Healthcare) detection. For fractionation, cells were grown in 10-cm tissue culture plates and treated with 30 or 60 μmol/L of 3′-dA or NUC-7738 for 6 hours. Cells were grown in 10-cm tissue culture plates and fractionated using the Nuclear Extraction Kit (Abcam) following manufacturer's instructions. Twenty-five micrograms of each fraction was used for Western blot (WB) detection. NF-κB p65 antibody (catalog no. 8242, CST), nuclear marker Lamin B1 (catalog no. ab16048, Abcam), cytosolic GAPDH (catalog no. 97166, CST), cleaved PARP (catalog no. 9541, CST), and Actin (MAB1501, Merck) were used.
Figure 5. […] C, NF-κB activity was measured using the SEAP reporter gene assay in THP-1 cells. […] SEAP production as result of NF-κB activity was measured using the QuantiBlue colorimetric enzyme assay. […]

[1] = system: human ccRCC tissue slices; assay: Ex vivo tissue slice culture of clear cell renal carcinoma; assay type: cell-based; settings: 0, 5 and 25 μmol/L, 24 hours
Source text: A fresh sample of clear cell renal carcinoma (ccRCC) was placed in formalin to serve as a formalin control for our experiment. The sample was transported in precooled 199 medium (catalog no. 2154) supplemented with penicillin/streptomycin (1%), Normocin (0.2%), and Glutamax (2 mmol/L). The tissue sample was embedded in low-melting point agarose gel and sliced into 250-μm sections using a Vibratome VT1000S (Leica Biosystems). Tissue slices were put immediately into media (199 medium supplemented with 10% FBS, 2 mmol/L Glutamax, and 1% penicillin/streptomycin) containing different concentrations of NUC-7738 (0, 5, and 25 μmol/L) and incubated for 24 hours at 37°C. Treated tissue sections were then fixed using PFA for 1 hour at room temperature and stored in PBS at 4°C. The treated slices were later embedded in paraffin and subsequently sliced into 3-μm sections using a microtome. The sections were placed on slides and baked overnight at 40°C. Sections were dewaxed using xylene and rehydrated in a graded alcohol series followed by tap water. […]
Immunofluorescence staining was performed using BOND RX. NF-κB p65 (catalog no. 4764, CST) and cleaved caspase-3 (catalog no. 9661, CST) were detected with HRP-conjugated secondary antibody and visualized using tyramide-fluorophore conjugates (TSA Cy5 for both). […]

SK-OV3 = assay: MTT cell viability, SK-OV3; assay type: cell-based; settings: Homo sapiens, SK-OV-3, 48 h
Method: as §1

For C[C@H](NP(=O)(OC[C@@H]1C[C@@H](O)[C@H](n2cnc3c(N)ncnc32)O1)Oc1ccccc1)C(=O)OCc1ccccc1 (stereo partly drawn) [NUC-7738, 3′-deoxyadenosine-5′-O-phenyl-(benzyloxy-L-alaninyl)-phosphate], the IC50 (501MEL) was 10.9 µM, the IC50 (ACHN) was 54.7 µM and the “sensitivity after depletion of HINT1” value (HINT1 KO HAP1 cells) was “markedly reduced sensitivity”. The “nuclear translocation of NF-κB” value (NF-κB; NF-κB THP1 reporter cell line, LPS, fractionation and Western blot) was “a reduction in the nuclear translocation of NF-κB”, the NF-κB activation (NF-κB; THP-1 SEAP reporter, LPS induced) was “significantly reduced NF-κB activation” and the “nuclear p65 and tumor-cell apoptosis” value [1] was “dose-dependent decrease in nuclear p65 and an increase in tumor-cell apoptosis”. The IC50 (SK-OV3) was 16.6 µM.
